# In patent publication US10150771B2, “Triazolopyrazinones as PDE1 inhibitors” (H. Lundbeck A/S, priority 2014, dated 2018):
# Columns and labels:
# Assay type in all cases: biochemical
# [1] = target: PDE1B (Homo sapiens, UniProt Q01064); test: PDE1 inhibition assay (SPA), PDE1B; conditions: for IC50: concentration required to reach 50% inhibition of the enzyme, 15 nM tritium labelled cAMP, read-out: PDE1B inhibition (nM or %): IC50; for inhibition at 10 µM: 1 h, % inhibition of the enzyme at a concentration of 10 micro molar of the compound, read-out: PDE1B inhibition (nM or %): % inhib
# Description: (§1) PDE1 Inhibition Assay PDE1A, PDE1B and PDE1C assays were performed as follows: the assays were performed in 60 μL samples containing a fixed amount of the PDE1 enzym1 (sufficient to convert 20-25% of the cyclic nucleotide substrate), a buffer (50 mM HEPES pH 7.6; 10 mM MgCl2; 0.02% Tween20), 0.1 mg/ml BSA, 15 nM tritium labelled cAMP and varying amounts of inhibitors. Reactions were initiated by addition of the cyclic nucleotide substrate, and reactions were allowed to proceed for 1 h at room temperature before being terminated through mixing with 20 μL (0.2 mg) yttrium silicate SPA beads (PerkinElmer). The beads were allowed to settle for 1 h in the dark before the plates were counted in a Wallac 1450 Microbeta counter. The measured signals were converted to activity relative to an uninhibited control (100%) and IC50 values were calculated using XIFit (model 205, IDBS).
# [2] = target: PDE1A (Homo sapiens, UniProt P54750); test: PDE1 inhibition assay (SPA), PDE1A; conditions: for IC50: concentration required to reach 50% inhibition of the enzyme, 15 nM tritium labelled cAMP, read-out: PDE1A inhibition (nM or %): IC50
# Description: as §1
# [3] = target: PDE1C (Homo sapiens, UniProt Q14123); test: PDE1 inhibition assay (SPA), PDE1C; conditions: concentration required to reach 50% inhibition of the enzyme; 15 nM tritium labelled cAMP; read-out: PDE1C inhibition (nM or %): IC50
# Description: as §1
# Sequence of PDE1A (P54750 whole entry): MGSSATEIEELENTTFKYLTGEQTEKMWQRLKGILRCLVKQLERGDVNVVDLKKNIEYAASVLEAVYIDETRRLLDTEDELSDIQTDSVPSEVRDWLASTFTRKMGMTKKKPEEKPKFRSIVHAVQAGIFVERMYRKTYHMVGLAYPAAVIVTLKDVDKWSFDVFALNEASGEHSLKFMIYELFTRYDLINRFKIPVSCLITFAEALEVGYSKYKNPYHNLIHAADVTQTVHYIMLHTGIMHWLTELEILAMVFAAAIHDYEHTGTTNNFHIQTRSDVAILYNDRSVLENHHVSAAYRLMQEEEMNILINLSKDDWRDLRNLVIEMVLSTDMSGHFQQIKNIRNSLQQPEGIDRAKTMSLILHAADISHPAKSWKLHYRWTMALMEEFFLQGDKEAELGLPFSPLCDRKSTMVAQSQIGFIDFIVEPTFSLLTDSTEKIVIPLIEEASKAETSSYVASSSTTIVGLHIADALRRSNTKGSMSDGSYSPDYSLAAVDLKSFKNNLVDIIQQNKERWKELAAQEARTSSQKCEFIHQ
# Sequence of PDE1B (Q01064 whole entry): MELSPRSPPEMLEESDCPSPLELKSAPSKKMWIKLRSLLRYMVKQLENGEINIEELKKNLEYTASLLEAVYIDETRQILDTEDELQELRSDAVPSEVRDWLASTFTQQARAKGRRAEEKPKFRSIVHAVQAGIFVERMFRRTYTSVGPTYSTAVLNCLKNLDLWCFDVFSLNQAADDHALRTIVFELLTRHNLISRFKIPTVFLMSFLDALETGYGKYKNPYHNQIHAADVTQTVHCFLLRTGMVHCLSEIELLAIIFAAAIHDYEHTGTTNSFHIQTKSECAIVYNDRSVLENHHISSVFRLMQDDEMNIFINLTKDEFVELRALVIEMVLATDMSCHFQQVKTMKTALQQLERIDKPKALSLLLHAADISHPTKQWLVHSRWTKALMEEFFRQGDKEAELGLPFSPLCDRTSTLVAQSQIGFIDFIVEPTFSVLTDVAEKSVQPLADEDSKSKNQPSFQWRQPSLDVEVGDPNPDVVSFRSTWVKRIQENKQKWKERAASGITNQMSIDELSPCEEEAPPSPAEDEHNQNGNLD
# Sequence of PDE1C (Q14123 whole entry): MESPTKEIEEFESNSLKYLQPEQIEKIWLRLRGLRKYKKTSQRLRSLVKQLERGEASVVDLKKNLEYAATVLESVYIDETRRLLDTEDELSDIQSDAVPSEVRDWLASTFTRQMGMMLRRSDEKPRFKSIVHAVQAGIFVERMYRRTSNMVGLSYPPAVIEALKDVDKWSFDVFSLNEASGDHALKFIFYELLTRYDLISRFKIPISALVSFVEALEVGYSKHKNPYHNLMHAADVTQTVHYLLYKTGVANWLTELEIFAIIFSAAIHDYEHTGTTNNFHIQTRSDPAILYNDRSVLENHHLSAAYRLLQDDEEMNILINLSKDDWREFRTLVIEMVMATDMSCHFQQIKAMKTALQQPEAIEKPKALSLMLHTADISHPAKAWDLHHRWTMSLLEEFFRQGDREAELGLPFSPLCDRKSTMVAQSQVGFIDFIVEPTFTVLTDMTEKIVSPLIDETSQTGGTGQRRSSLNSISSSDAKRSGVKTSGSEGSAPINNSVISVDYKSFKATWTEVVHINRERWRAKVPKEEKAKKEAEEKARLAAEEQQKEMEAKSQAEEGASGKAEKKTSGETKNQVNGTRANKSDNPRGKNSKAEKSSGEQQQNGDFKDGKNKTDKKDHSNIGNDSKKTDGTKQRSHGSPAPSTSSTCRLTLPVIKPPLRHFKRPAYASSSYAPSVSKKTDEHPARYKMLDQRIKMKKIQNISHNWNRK
IC50 [1] [nM],IC50 [2] [nM],IC50 [3] [nM],inhibition at 10 µM [1] [%],PDE1A inhibition (nM or %): % inhib ([2]; % inhibition of the enzyme at a concentration of 10 micro molar of the compound) [%],"inhibition at 10 µM ([2]; 1 h, % inhibition of the enzyme at a concentration of 10 micro molar of the compound, read-out: PDE1A inhibition (nM or %): % inhib) [%]",Structure (SMILES)
680,730,140,–,–,–,"O=c1c2nnc(C3CCOCC3)n2ccn1Cc1cccc(F)c1 [7-(3-Fluorobenzyl)-3-(tetrahydro-2H-pyran-4-yl)-[1,2,4]triazolo[4,3-a]pyrazin-8(7H)-one]"
–,–,240,–,–,–,"O=c1c2nnc(C3CCOC3)n2ccn1Cc1cccc(F)c1 (single isomer, unassigned) [7-(3-Fluorobenzyl)-3-(tetrahydrofuran-3-yl)-[1,2,4]triazolo[4,3-a]pyrazin-8(7H)-one]"
–,1800,–,–,–,–,"O=c1c2nnc(C3CCCOC3)n2ccn1Cc1cccc(F)c1 (single isomer, unassigned) [7-(3-Fluorobenzyl)-3-(tetrahydro-2H-pyran-3-yl)-[1,2,4]triaz] [7-(3-Fluorobenzyl)-3-(tetrahydro-2H-pyran-3-yl)-[1,2,4]triazolo[4,3-a]pyrazin-8(7H)-one]"
–,3200,–,–,–,–,"O=c1c2nnc(C3CCCCO3)n2ccn1Cc1cccc(F)c1 (single isomer, unassigned) [7-(3-Fluorobenzyl)-3-(tetrahydro-2H-pyran-2-yl)-[1,2,4]triazolo[4,3-a]pyrazin-8(7H)-one]"
–,1800,–,–,–,–,"O=c1c2nnc(C3CCCOC3)n2ccn1Cc1cccc(F)c1 (single isomer, unassigned) [7-(3-Fluorobenzyl)-3-(tetrahydro-2H-pyran-3-yl)-[1,2,4]triazolo[4,3-a]pyrazin-8(7H)-one]"
–,3200,–,–,–,–,"O=c1c2nnc(C3CCCCO3)n2ccn1Cc1cccc(F)c1 (single isomer, unassigned) [7-(3-Fluorobenzyl)-3-(tetrahydro-2H-pyran-2-yl)-[1,2,4]triaz] [7-(3-Fluorobenzyl)-3-(tetrahydro-2H-pyran-2-yl)-[1,2,4]triazolo[4,3-a]pyrazin-8(7H)-one]"
–,–,–,–,49,–,"O=c1c2nnc(CC3CCCO3)n2ccn1Cc1cccc(F)c1 (single isomer, unassigned) [7-(3-Fluorobenzyl)-3-((tetrahydrofuran-2-yl)methyl)-[1,2,4]t] [7-(3-Fluorobenzyl)-3-((tetrahydrofuran-2-yl)methyl)-[1,2,4]triazolo[4,3-a]pyrazin-8(7H)-one]"
3700,–,–,67,–,67,"O=c1c2nnc(CC3CCCO3)n2ccn1Cc1cccc(F)c1 (single isomer, unassigned) [7-(3-Fluorobenzyl)-3-((tetrahydrofuran-2-yl)methyl)-[1,2,4]triazolo[4,3-a]pyrazin-8(7H)-one]"
–,–,240,–,–,–,"O=c1c2nnc(C3CCOC3)n2ccn1Cc1cccc(F)c1 (single isomer, unassigned) [7-(3-Fluorobenzyl)-3-(tetrahydrofuran-3-yl)-[1,2,4]triazolo[] [7-(3-Fluorobenzyl)-3-(tetrahydrofuran-3-yl)-[1,2,4]triazolo[4,3-a]pyrazin-8(7H)-one]"

# The remaining lines, values behind:
Structure (SMILES),IC50 [1] [nM],IC50 [2] [nM],IC50 [3] [nM],inhibition at 10 µM [1] [%],PDE1A inhibition (nM or %): % inhib ([2]; % inhibition of the enzyme at a concentration of 10 micro molar of the compound) [%],"inhibition at 10 µM ([2]; 1 h, % inhibition of the enzyme at a concentration of 10 micro molar of the compound, read-out: PDE1A inhibition (nM or %): % inhib) [%]"
"O=c1c2nnc(C3CCOCC3)n2ccn1CC1CCCCC1 [7-(Cyclohexylmethyl)-3-(tetrahydro-2H-pyran-4-yl)-[1,2,4]triazolo[4,3-a]pyrazin-8(7H)-one]",190,220,87,–,–,–
"O=c1c2nnc(C3CCOCC3)n2cc(Cc2cccc(F)c2)n1CC1CCCC1 [7-(cyclopentylmethyl)-6-(3-fluorobenzyl)-3-(tetrahydro-2H-pyran-4-yl)-[1,2,4]triazolo[4,3-a]pyrazin-8(7H)-one]",220,369,27,–,–,–
"CCCc1nnc2c(=O)n(Cc3cccc(F)c3)c(Br)cn12 [6-bromo-7-(3-fluorobenzyl)-3-propyl-[1,2,4]triazolo[4,3-a]pyrazin-8(7H)-one]",99,63,20,–,–,–
"CCCc1nnc2c(=O)n(CC3CCC(C)(C)CC3)ccn12 [7-((4,4-dimethylcyclohexyl)methyl)-3-propyl-[1,2,4]triazolo[4,3-a]pyrazin-8(7H)-one]",110,130,110,–,–,–
"CCCc1nnc2c(=O)n(Cc3ccc(F)cc3)ccn12 [7-(4-Fluorobenzyl)-3-propyl-[1,2,4]triazolo[4,3-a]pyrazin-8(7H)-one]",1200,970,360,–,–,–
"CCCc1nnc2c(=O)n(CC3CCC(C)CC3)ccn12 (single isomer, unassigned) [7-(((1s,4s)-4-methylcyclohexyl)methyl)-3-propyl-[1,2,4]triazolo[4,3-a]pyrazin-8(7H)-one]",24,111,36,–,–,–
"Cc1ccccc1Cc1cn2c(C3CCOCC3)nnc2c(=O)n1CC1CCCCCC1 [7-(cycloheptylmethyl)-6-(2-methylbenzyl)-3-(tetrahydro-2H-pyran-4-yl)-[1,2,4]triazolo[4,3-a]pyrazin-8(7H)-one]",39,25,14,–,–,–
"CCCc1nnc2c(=O)n(Cc3cccc(F)c3)ccn12 [7-(3-Fluorobenzyl)-3-propyl-[1,2,4]triazolo[4,3-a]pyrazin-8(7H)-one]",1200,1100,190,–,–,–
"O=c1c2nnc(C3CCOC3)n2ccn1Cc1ccc(Cl)cc1 (stereo not drawn) [7-(4-Chlorobenzyl)-3-(tetrahydrofuran-3-yl)-[1,2,4]triazolo[4,3-a]pyrazin-8(7H)-one]",840,500,750,–,–,–
"Cn1c(Cc2ccccc2)cn2c(C3CCOCC3)nnc2c1=O [6-benzyl-7-methyl-3-(tetrahydro-2H-pyran-4-yl)-[1,2,4]triazolo[4,3-a]pyrazin-8(7H)-one]",1600,2000,2800,–,–,–
"O=c1c2nnc(C3CCOCC3)n2cc(Cc2ccc(F)cc2)n1Cc1cccc(F)c1 [7-(3-fluorobenzyl)-6-(4-fluorobenzyl)-3-(tetrahydro-2H-pyran-4-yl)-[1,2,4]triazolo[4,3-a]pyrazin-8(7H)-one]",43,46,10,–,–,–
"O=c1c2nnc(C3CCOCC3)n2cc(Cc2cccc(F)c2)n1Cc1cccc(F)c1 [6,7-bis(3-fluorobenzyl)-3-(tetrahydro-2H-pyran-4-yl)-[1,2,4]triazolo[4,3-a]pyrazin-8(7H)-one]",40,47,8,–,–,–
"CCCc1nnc2c(=O)n(Cc3ccc(Cl)cc3)ccn12 [7-(4-Chlorobenzyl)-3-propyl-[1,2,4]triazolo[4,3-a]pyrazin-8(7H)-one]",83,620,170,–,–,–
"CCCc1nnc2c(=O)n(CC3(C)CCCCC3)ccn12 [7-((1-methylcyclohexyl)methyl)-3-propyl-[1,2,4]triazolo[4,3-a]pyrazin-8(7H)-one]",950,1300,260,–,–,–
"O=c1c2nnc(C3CCOCC3)n2cc(Cc2ccccc2)n1Cc1ccc(F)cc1 [6-benzyl-7-(4-fluorobenzyl)-3-(tetrahydro-2H-pyran-4-yl)-[1,2,4]triazolo[4,3-a]pyrazin-8(7H)-one]",12,15,6,–,–,–
"Cc1cccc(Cc2cn3c(C4CCOCC4)nnc3c(=O)n2CC2CCCC2)c1 [7-(cyclopentylmethyl)-6-(3-methylbenzyl)-3-(tetrahydro-2H-pyran-4-yl)-[1,2,4]triazolo[4,3-a]pyrazin-8(7H)-one]",37,17,4,–,–,–
"CCCc1nnc2c(=O)n(CC3CCOC3)ccn12 (single isomer, unassigned) [3-Propyl-7-((tetrahydrofuran-3-yl)methyl)-[1,2,4]triazolo[4,3-a]pyrazin-8(7H)-one]",4000,–,–,67,–,–
